Like-named read-outs stand apart in the source and are kept apart here.
How the values were obtained:
[1] = tested on: advanced solid tumors; assay: tumor response by RECIST Version 1.0; format: in vivo, human
Procedure: Patients with NETs were enrolled with priority as preliminary efficacy was shown in these tumor types in the dose-escalation stage. Tumor response (an exploratory endpoint) was assessed according to RECIST Version 1.0 and measured at baseline, at the end of every treatment cycle in the first four cycles, and every other cycle thereafter. […] Calculations of the following parameters were made: ORR (CR + PR); SD defined as ≥1 assessment of SD at least six weeks after study entry; DCR (CR + PR + SD). TTR, DoR and PFS were analyzed in the subgroup of patients with NET.

[2] = target: 278 other kinases; assay: kinase selectivity profile (broad kinase screening); format: biochemical
Excerpt: (§1) Table 1 Sulfatinib kinase selectivity profile | column: IC50 (μM)

[3] = target: VEGFR 1 (Homo sapiens, UniProt P17948); assay: kinase selectivity profile; format: biochemical
Excerpt: as §1

[4] = target: VEGFR 3 (Homo sapiens, UniProt P35916); assay: kinase selectivity profile; format: biochemical
Excerpt: as §1

[5] = target: CSF1R (Homo sapiens, UniProt P07333); assay: kinase selectivity profile; format: biochemical
Excerpt: as §1

[6] = target: VEGFR 2 (Homo sapiens, UniProt P35968); assay: kinase selectivity profile; format: biochemical
Excerpt: as §1

[7] = target: FGFR1 (Homo sapiens, UniProt P11362); assay: kinase selectivity profile; format: biochemical
Excerpt: as §1

[8] = target: TrkB (Homo sapiens, UniProt Q16620); assay: kinase selectivity profile; format: biochemical
Excerpt: as §1

[9] = target: T1, FLT3 (Homo sapiens, UniProt P36888); assay: kinase selectivity profile; format: biochemical
T1 sequence (P36888 27-993): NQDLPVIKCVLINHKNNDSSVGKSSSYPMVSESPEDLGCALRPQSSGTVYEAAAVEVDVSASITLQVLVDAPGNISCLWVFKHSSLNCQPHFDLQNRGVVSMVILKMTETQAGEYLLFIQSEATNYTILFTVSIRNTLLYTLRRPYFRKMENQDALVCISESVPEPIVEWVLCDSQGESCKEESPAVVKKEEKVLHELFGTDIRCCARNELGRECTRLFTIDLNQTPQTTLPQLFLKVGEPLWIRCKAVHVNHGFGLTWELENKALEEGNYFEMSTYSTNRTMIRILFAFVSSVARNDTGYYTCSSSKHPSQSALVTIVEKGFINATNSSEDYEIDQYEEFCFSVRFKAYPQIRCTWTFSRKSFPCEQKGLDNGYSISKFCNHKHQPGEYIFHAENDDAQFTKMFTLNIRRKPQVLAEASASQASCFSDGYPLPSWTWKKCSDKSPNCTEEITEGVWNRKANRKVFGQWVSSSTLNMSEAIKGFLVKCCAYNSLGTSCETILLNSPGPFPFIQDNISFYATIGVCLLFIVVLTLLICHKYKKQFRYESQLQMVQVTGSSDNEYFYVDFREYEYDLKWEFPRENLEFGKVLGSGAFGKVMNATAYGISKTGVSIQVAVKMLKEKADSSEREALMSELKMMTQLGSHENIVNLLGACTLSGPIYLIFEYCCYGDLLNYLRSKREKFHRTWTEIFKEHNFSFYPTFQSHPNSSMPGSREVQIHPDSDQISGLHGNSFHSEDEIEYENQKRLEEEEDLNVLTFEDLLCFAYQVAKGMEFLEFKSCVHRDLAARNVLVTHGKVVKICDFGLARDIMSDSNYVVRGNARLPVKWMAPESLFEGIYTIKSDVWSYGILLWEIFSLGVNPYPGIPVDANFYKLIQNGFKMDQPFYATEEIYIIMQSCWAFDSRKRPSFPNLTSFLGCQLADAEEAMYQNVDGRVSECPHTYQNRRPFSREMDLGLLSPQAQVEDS
Excerpt: as §1

[10] = tested on: patients with advanced solid tumors; assay: phase I safety and tolerability (AEs, DLTs, MTD); format: in vivo; details: doses of 50-350 mg QD and 125-150 mg BID; up to 350 mg QD (formulation 2)
Excerpt: The primary objectives of this open-label, first-in-human phase I study (NCT02133157) were to determine MTD and the phase II dose of sulfatinib, and to evaluate the safety of sulfatinib in patients with advanced solid tumors. The secondary and exploratory objectives included evaluation of sulfatinib PK and preliminary anti-tumor activity. The study consisted of a dose-escalation phase (split into a single-dose period and continuous-dose period) and a tumor-specific expansion phase. Two sulfatinib formulations were used during the study: formulation 1 (5, 25, and 50 mg capsules) and formulation 2 (50 and 200 mg capsules). […]
During the dose-escalation phase, patients were given a single dose of sulfatinib and monitored for AEs for seven days. […] DLTs were assessed at the end of the 28-day period. […]
The study used a modified Fibonacci 3+3 dose-escalation design with at least three evaluable patients treated with each dose. […] If two or more of the first three or overall six patients experienced a DLT, the MTD was considered exceeded and the previous lower dose would be re-assessed to determine the MTD. […]
Safety and tolerability were assessed in all patients who received at least one dose of sulfatinib throughout the study. AEs were recorded throughout the study. […]

[11] = tested on: pancreatic NET patients; parameters: method as in PMID 21306237; details: phase III trial; cited from earlier work
[12] = tested on: pancreatic NET patients; parameters: method as in PMID 21306238; details: phase III trial; cited from earlier work
[13] = tested on: GI and lung NET patients; parameters: method as in PMID 26703889; details: phase III trial; cited from earlier work
[14] = three NET patients who progressed on prior VEGFR kinase inhibitors

Sequence of CSF1R (P07333 20-972): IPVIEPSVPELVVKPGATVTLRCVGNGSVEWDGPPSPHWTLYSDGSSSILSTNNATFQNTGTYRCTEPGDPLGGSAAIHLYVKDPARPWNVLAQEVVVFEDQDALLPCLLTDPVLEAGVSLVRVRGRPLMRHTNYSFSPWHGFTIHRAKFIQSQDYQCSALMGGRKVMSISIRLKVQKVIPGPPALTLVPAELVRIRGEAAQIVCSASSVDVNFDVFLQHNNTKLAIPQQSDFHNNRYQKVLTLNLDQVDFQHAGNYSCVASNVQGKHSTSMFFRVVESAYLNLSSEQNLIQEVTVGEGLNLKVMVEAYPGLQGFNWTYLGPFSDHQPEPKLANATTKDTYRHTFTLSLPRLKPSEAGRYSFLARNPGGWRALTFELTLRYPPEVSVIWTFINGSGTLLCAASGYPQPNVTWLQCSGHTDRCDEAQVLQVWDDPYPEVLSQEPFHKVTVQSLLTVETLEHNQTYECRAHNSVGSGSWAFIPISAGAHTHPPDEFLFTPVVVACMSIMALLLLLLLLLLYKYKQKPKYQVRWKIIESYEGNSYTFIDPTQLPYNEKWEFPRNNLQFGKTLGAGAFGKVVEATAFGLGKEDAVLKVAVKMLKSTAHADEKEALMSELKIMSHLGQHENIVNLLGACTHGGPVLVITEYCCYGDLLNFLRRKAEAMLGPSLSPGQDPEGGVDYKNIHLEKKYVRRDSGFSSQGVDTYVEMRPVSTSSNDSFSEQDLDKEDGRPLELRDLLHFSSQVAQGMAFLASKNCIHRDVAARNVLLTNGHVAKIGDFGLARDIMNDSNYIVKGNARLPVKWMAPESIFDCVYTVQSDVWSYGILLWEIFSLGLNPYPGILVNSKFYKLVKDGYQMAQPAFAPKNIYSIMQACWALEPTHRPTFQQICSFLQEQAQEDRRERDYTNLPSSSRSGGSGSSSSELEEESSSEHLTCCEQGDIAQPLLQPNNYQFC
Sequence of TrkB (Q16620 32-822): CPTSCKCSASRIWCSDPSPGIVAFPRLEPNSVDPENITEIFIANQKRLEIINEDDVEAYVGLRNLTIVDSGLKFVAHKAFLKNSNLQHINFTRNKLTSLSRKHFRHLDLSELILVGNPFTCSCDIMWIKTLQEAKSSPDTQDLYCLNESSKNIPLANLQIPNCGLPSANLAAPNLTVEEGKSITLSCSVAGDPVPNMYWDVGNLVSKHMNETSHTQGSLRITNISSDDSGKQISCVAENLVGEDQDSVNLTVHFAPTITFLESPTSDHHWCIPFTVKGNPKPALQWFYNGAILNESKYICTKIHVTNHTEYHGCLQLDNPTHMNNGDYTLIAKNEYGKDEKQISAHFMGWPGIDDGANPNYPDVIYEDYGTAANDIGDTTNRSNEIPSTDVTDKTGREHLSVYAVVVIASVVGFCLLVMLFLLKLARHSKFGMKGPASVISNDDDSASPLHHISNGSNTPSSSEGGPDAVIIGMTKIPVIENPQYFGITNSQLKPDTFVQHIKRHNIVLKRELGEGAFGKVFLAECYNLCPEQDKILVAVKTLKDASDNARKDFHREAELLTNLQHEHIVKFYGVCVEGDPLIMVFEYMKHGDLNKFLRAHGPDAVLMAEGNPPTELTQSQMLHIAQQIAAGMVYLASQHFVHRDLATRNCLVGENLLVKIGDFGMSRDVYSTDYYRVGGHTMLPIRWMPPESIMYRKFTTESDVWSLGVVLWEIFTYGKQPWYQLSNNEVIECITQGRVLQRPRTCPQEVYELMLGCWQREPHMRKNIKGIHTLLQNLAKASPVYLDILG
Sequence of VEGFR 2 (P35968 20-1356): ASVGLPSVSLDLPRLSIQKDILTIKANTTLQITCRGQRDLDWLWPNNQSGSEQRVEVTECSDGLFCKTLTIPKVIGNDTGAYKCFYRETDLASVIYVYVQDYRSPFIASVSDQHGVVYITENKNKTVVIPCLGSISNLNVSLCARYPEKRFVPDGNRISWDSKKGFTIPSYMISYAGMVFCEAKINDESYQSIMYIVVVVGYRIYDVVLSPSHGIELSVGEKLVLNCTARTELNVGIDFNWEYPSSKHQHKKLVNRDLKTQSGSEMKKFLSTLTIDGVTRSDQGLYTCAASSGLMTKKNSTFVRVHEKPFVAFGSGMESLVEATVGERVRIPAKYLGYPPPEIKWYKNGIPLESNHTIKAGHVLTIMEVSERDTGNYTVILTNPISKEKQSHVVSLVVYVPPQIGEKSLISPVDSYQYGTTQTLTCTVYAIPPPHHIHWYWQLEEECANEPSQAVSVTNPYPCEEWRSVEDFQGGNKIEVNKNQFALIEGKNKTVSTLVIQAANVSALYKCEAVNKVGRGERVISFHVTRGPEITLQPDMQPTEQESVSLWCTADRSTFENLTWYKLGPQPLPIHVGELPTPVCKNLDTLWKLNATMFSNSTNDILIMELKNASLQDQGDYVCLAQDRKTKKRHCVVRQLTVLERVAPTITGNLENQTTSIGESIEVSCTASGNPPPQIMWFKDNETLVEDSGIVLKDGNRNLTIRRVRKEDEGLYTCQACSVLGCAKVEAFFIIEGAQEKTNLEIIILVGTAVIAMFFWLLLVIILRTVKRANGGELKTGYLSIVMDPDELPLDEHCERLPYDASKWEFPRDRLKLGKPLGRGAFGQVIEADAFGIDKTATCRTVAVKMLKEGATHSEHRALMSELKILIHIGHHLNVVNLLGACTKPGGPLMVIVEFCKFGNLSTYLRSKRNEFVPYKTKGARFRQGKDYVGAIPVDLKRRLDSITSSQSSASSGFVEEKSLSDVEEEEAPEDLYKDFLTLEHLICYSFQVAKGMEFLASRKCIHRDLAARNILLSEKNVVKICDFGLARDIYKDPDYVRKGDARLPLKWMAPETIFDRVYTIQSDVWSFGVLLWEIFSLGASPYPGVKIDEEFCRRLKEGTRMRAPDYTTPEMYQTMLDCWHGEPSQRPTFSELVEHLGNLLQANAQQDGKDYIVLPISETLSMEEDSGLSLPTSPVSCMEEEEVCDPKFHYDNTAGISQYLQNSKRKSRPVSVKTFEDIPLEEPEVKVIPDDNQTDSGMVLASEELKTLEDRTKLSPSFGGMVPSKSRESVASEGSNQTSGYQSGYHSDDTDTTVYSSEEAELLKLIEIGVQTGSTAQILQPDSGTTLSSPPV
Sequence of FGFR1 (P11362 22-822): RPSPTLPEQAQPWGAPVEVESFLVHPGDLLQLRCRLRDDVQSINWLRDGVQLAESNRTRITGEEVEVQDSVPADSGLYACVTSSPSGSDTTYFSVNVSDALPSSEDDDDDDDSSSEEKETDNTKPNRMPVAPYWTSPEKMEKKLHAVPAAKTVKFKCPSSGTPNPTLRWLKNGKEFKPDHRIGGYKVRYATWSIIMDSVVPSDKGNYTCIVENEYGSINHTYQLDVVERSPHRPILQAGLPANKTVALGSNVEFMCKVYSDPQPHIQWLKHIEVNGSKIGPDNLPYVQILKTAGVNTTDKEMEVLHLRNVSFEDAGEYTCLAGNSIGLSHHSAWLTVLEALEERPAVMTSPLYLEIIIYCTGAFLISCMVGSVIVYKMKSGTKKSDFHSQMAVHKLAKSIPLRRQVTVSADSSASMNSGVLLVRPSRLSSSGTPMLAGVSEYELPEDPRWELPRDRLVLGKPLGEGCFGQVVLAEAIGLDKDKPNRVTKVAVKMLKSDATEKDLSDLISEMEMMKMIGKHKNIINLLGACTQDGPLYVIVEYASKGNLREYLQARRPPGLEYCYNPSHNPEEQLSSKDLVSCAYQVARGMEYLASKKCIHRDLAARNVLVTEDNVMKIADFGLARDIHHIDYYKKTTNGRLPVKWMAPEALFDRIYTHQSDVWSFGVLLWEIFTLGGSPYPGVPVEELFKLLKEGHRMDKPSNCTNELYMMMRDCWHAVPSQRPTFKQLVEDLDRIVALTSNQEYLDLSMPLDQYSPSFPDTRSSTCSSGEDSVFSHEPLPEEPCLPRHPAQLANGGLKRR

For `Cc1cc2cc(Oc3ccnc(Nc4cccc(CS(=O)(=O)NCCN(C)C)c4)n3)ccc2[nH]1` [Sulfatinib], the “patients with confirmed PR” value ([1]; all 77 patients) was “Nine”, the “patients with sustainable SD” value ([1]; all 77 patients) was 23 and the “objective response rate (ORR)” value ([1]; all 77 patients (9/77)) was 11.7%. The “disease control rate (DCR)” value ([1]; all 77 patients (32/77)) was 41.6%, the “patients achieving PR” value [1, 14] was “one” and the “patients achieving SD” value [1, 14] was “two”. The IC50 [2] was greater than 150 nM, the IC50 [3] was 2 nM and the IC50 [4] was 1 nM. It also gave an IC50 [5] of 4 nM, an IC50 [6] of 24 nM and an IC50 [7] of 15 nM. The IC50 [8] was 41 nM, the IC50 [9] was 67 nM and the “maximum tolerated dose (MTD)” value [10] was “not reached”.
For `CCN(CC)CCNC(=O)c1c(C)[nH]c(/C=C2\C(=O)Nc3ccc(F)cc32)c1C` [sunitinib], the ORR [11] is given as 9.3% and the PFS [11] is given as 11.0 months.
In the case of `CO[C@H]1C[C@@H]2CC[C@@H](C)[C@@](O)(O2)C(=O)C(=O)N2CCCC[C@H]2C(=O)O[C@H]([C@H](C)C[C@@H]2CC[C@@H](OCCO)[C@H](OC)C2)CC(=O)[C@H](C)/C=C(\C)[C@@H](O)[C@@H](OC)C(=O)[C@H](C)C[C@H](C)/C=C/C=C/C=C/1C` [everolimus], the ORR [12] is listed as 5%, the “median PFS” value [12] is listed as 11.0 months and the ORR [13] is listed as 2%. The “median PFS” value [13] was 11.0 months.

From paper PMC5522050, “Sulfatinib, a novel kinase inhibitor, in patients with advanced solid tumors: results from a phase I study” (Oncotarget, 2017)
